From US4237116A, “Combination of thiopeptin and rumensin to improve ruminant feed efficiency” (Merck & Co., Inc., priority 1979, dated 1980)

Tested on: ruminants (cattle)
Assay: Propionate content of rumen fluid in cattle given medicated feed (high roughage diet, then shifted to high grain diet)
Format: in vivo
Protocol: The synergistic effect of the combination of thiopeptin and rumensin has been observed by administering the two compounds to ruminants on a controlled diet and taking periodic samples of rumen fluid. The amount of each of the volatile fatty acids present in the rumen fluid is measured and compared with that of animals taking no medication and also with animals given only one of the two compounds. This effect has been observed in ruminants on diets of both the high roughage and high grain types. […] Animals given the same diet but with 8.25 ppm of thiopeptin in the diet for 7 days had 25.87 mole % of propionate. Animals given 16.5 ppm of rumensin for 7 days had 25.81 mole % of propionate. […] In the same test, the animal's feed was then shifted to a high grain diet and after 2 days rumen samples again taken. The control animals had 21.73 mole % of propionate. The thiopeptin treated animals (at the same dose as the first test) had 27.31 mole % propionate. The rumensin treated animals (again at the same dose as previously) had 25.95 mole % of propionate.

[1] = high roughage diet, drug in the diet for 7 days, thiopeptin 8.25 ppm, rumensin 16.5 ppm, combination 8.25 ppm + 16.5 ppm, control animals 24.16 mole %
[2] = same test after shift to high grain diet, rumen samples after 2 days, same doses (thiopeptin 8.25 ppm, rumensin 16.5 ppm, combination of both), control animals 21.73 mole %

CC[C@@]1([C@H]2O[C@H]([C@H]3O[C@@](O)(CO)[C@H](C)C[C@@H]3C)C[C@H]2C)CC[C@H]([C@@]2(C)CC[C@]3(C[C@H](O)[C@@H](C)[C@@H]([C@H](C)[C@H](OC)[C@@H](C)C(=O)[O-])O3)O2)O1.[Na+] [rumensin, Rumensin]
propionate in the rumen fluid [1]: 25.81 mole %
propionate in the rumen fluid [2]: 25.95 mole %

Thiopeptin
propionate in the rumen fluid [1]: 25.87 mole %
propionate in the rumen fluid [2]: 27.31 mole %
